Where “and” joins values, the source holds several entries; their conditions need not be identical. Equal entries are not always repeated.
Conditions: 303.16 K, Liquid, Vibrating tube method

CCCCCC(=O)OCC(COC(=O)CCCCC)(COC(=O)CCCCC)COC(=O)CCCCC [pentaerythritol tetrahexanoate]
Conditions	mass density
291.9 kPa	988.7 kg/m3
292.2 kPa	988.5 kg/m3
292.6 kPa	988.6 kg/m3
292.9 kPa	988.6 kg/m3
297.1 kPa	988.4 kg/m3
297.8 kPa	988.5 kg/m3
298.1 kPa	988.6 kg/m3
298.5 kPa	988.5 kg/m3
298.7 kPa	988.6 kg/m3
299.2 kPa	988.5 kg/m3
299.3 kPa	988.6 kg/m3
299.9 kPa	988.4 kg/m3 and 988.6 kg/m3
300.4 kPa	988.6 kg/m3
300.7 kPa	988.6 kg/m3
301.1 kPa	988.6 kg/m3
301.2 kPa	988.6 kg/m3
301.6 kPa	988.6 kg/m3
302 kPa	988.5 kg/m3
302.1 kPa	988.5 kg/m3
302.7 kPa	988.6 kg/m3
303 kPa	988.5 kg/m3
303.2 kPa	988.5 kg/m3
303.7 kPa	988.5 kg/m3
303.9 kPa	988.6 kg/m3
304.2 kPa	988.5 kg/m3
304.5 kPa	988.6 kg/m3
304.7 kPa	988.6 kg/m3
305.1 kPa	988.5 kg/m3
306.3 kPa	988.5 kg/m3
306.6 kPa	988.6 kg/m3
307 kPa	988.6 kg/m3
307.3 kPa	988.6 kg/m3
307.8 kPa	988.5 kg/m3
307.9 kPa	988.5 kg/m3
308.2 kPa	988.5 kg/m3
308.7 kPa	988.6 kg/m3
309.1 kPa	988.5 kg/m3
309.4 kPa	988.6 kg/m3
309.8 kPa	988.5 kg/m3
310.1 kPa	988.5 kg/m3
310.8 kPa	988.5 kg/m3
311 kPa	988.5 kg/m3
311.3 kPa	988.6 kg/m3
311.7 kPa	988.6 kg/m3
311.9 kPa	988.5 kg/m3
312.2 kPa	988.6 kg/m3
312.5 kPa	988.6 kg/m3
313.6 kPa	988.6 kg/m3
314.6 kPa	988.6 kg/m3
315.8 kPa	988.6 kg/m3
316.7 kPa	988.5 kg/m3
317.1 kPa	988.4 kg/m3
317.2 kPa	988.6 kg/m3
317.4 kPa	988.5 kg/m3
317.9 kPa	988.5 kg/m3
318.1 kPa	988.6 kg/m3
318.5 kPa	988.6 kg/m3
318.6 kPa	988.6 kg/m3
318.8 kPa	988.5 kg/m3
319 kPa	988.5 kg/m3
319.3 kPa	988.5 kg/m3
319.5 kPa	988.5 kg/m3
319.8 kPa	988.5 kg/m3
320.4 kPa	988.5 kg/m3
320.9 kPa	988.5 kg/m3
321.2 kPa	988.5 kg/m3
321.9 kPa	988.6 kg/m3
322.3 kPa	988.6 kg/m3
324.7 kPa	988.5 kg/m3
325.6 kPa	988.6 kg/m3
326.1 kPa	988.6 kg/m3
326.6 kPa	988.4 kg/m3 and 988.6 kg/m3
327 kPa	988.6 kg/m3
327.1 kPa	988.6 kg/m3
327.3 kPa	988.6 kg/m3
327.7 kPa	988.6 kg/m3
328.4 kPa	988.5 kg/m3
328.9 kPa	988.6 kg/m3
329.1 kPa	988.6 kg/m3
333.2 kPa	988.6 kg/m3
333.9 kPa	988.6 kg/m3
339.3 kPa	988.7 kg/m3
339.7 kPa	988.6 kg/m3
340.3 kPa	988.7 kg/m3
341 kPa	988.6 kg/m3
344.3 kPa	988.5 kg/m3
344.5 kPa	988.7 kg/m3
344.7 kPa	988.6 kg/m3
345.2 kPa	988.6 kg/m3
345.5 kPa	988.6 kg/m3
346.2 kPa	988.5 kg/m3
346.6 kPa	988.7 kg/m3
346.9 kPa	988.6 kg/m3
347.3 kPa	988.5 kg/m3
347.6 kPa	988.6 kg/m3
348.2 kPa	988.7 kg/m3
348.7 kPa	988.6 kg/m3
349.2 kPa	988.5 kg/m3 and 988.6 kg/m3
349.4 kPa	988.6 kg/m3
349.9 kPa	988.5 kg/m3
350.6 kPa	988.5 kg/m3
350.9 kPa	988.6 kg/m3
351.5 kPa	988.7 kg/m3 and 988.6 kg/m3
352 kPa	988.6 kg/m3
352.8 kPa	988.6 kg/m3
353.2 kPa	988.8 kg/m3 and 988.5 kg/m3
353.4 kPa	988.6 kg/m3
353.5 kPa	988.6 kg/m3
354.1 kPa	988.7 kg/m3
354.2 kPa	988.6 kg/m3
354.6 kPa	988.6 kg/m3
354.9 kPa	988.6 kg/m3
358.1 kPa	988.6 kg/m3
358.4 kPa	988.7 kg/m3
358.9 kPa	988.6 kg/m3
359.4 kPa	988.6 kg/m3
359.8 kPa	988.6 kg/m3
360.3 kPa	988.6 kg/m3 and 988.5 kg/m3
364.5 kPa	988.6 kg/m3
365 kPa	988.7 kg/m3
365.2 kPa	988.5 kg/m3
365.9 kPa	988.7 kg/m3
366.2 kPa	988.7 kg/m3
366.6 kPa	988.7 kg/m3
367.3 kPa	988.8 kg/m3
367.6 kPa	988.6 kg/m3
368 kPa	988.6 kg/m3
368.3 kPa	988.6 kg/m3
368.6 kPa	988.7 kg/m3
369.5 kPa	988.6 kg/m3
369.9 kPa	988.6 kg/m3
370 kPa	988.5 kg/m3
370.2 kPa	988.6 kg/m3
371.1 kPa	988.6 kg/m3
371.3 kPa	988.6 kg/m3
371.6 kPa	988.7 kg/m3
372.1 kPa	988.7 kg/m3
372.5 kPa	988.5 kg/m3
373 kPa	988.6 kg/m3
373.5 kPa	988.7 kg/m3
374.2 kPa	988.6 kg/m3
374.6 kPa	988.6 kg/m3
374.9 kPa	988.6 kg/m3
375.4 kPa	988.7 kg/m3
380.8 kPa	988.5 kg/m3
382.9 kPa	988.7 kg/m3
385.3 kPa	988.6 kg/m3
387.4 kPa	988.6 kg/m3
454.3 kPa	988.6 kg/m3
457.1 kPa	988.6 kg/m3
461.3 kPa	988.6 kg/m3
465.1 kPa	988.6 kg/m3
468 kPa	988.6 kg/m3
470.8 kPa	988.7 kg/m3
474.1 kPa	988.6 kg/m3
478 kPa	988.6 kg/m3
481.2 kPa	988.6 kg/m3
484.7 kPa	988.7 kg/m3
488.4 kPa	988.7 kg/m3
491.7 kPa	988.7 kg/m3
495.5 kPa	988.7 kg/m3
498.8 kPa	988.7 kg/m3
502.4 kPa	988.7 kg/m3
505.6 kPa	988.6 kg/m3
509.2 kPa	988.8 kg/m3
513.8 kPa	988.7 kg/m3
517.4 kPa	988.7 kg/m3
521.2 kPa	988.6 kg/m3
525.6 kPa	988.7 kg/m3
529.6 kPa	988.8 kg/m3
534.1 kPa	988.7 kg/m3
537.9 kPa	988.6 kg/m3
542.3 kPa	988.9 kg/m3
546.9 kPa	988.7 kg/m3
550.9 kPa	988.7 kg/m3
555.3 kPa	988.8 kg/m3
559.5 kPa	988.8 kg/m3
564.3 kPa	988.8 kg/m3
569 kPa	988.8 kg/m3
574.4 kPa	988.9 kg/m3
692 kPa	988.8 kg/m3
698.5 kPa	988.8 kg/m3
706.1 kPa	988.8 kg/m3
712.5 kPa	988.8 kg/m3
719.3 kPa	988.9 kg/m3
727 kPa	988.7 kg/m3
734.3 kPa	988.8 kg/m3
741.2 kPa	988.8 kg/m3
748.1 kPa	988.8 kg/m3
756.7 kPa	988.8 kg/m3
763.8 kPa	988.9 kg/m3
771.6 kPa	988.9 kg/m3
779.1 kPa	988.8 kg/m3
788.5 kPa	988.9 kg/m3
796.3 kPa	988.8 kg/m3
804.1 kPa	988.8 kg/m3
811.9 kPa	988.9 kg/m3
821.6 kPa	988.9 kg/m3
829.8 kPa	988.8 kg/m3
848 kPa	988.8 kg/m3
856.6 kPa	988.9 kg/m3
864.9 kPa	989 kg/m3
1404 kPa	989.4 kg/m3
1416.2 kPa	989.4 kg/m3
1431.1 kPa	989.2 kg/m3
1443.8 kPa	989.3 kg/m3
1456.5 kPa	989.3 kg/m3
1642.7 kPa	989.5 kg/m3
1657.5 kPa	989.4 kg/m3
1672.3 kPa	989.4 kg/m3
1686.8 kPa	989.3 kg/m3
1704.7 kPa	989.4 kg/m3
1818.6 kPa	989.6 kg/m3
1834.9 kPa	989.6 kg/m3
1940.6 kPa	989.6 kg/m3
1957.6 kPa	989.6 kg/m3
1975.3 kPa	989.7 kg/m3
1996.3 kPa	989.5 kg/m3
2014.2 kPa	989.6 kg/m3
2035.9 kPa	989.6 kg/m3
2053.6 kPa	989.7 kg/m3
2072.3 kPa	989.7 kg/m3
2129.6 kPa	989.6 kg/m3
2148.3 kPa	989.7 kg/m3
2190 kPa	989.9 kg/m3
2209.4 kPa	989.7 kg/m3
2272.4 kPa	989.7 kg/m3
4203.4 kPa	991.1 kg/m3
4236.8 kPa	991 kg/m3
4264.7 kPa	991.2 kg/m3
4292.6 kPa	991.1 kg/m3
4320.1 kPa	991.1 kg/m3
4352.9 kPa	991.2 kg/m3
4379.7 kPa	991.1 kg/m3
4406.5 kPa	991.2 kg/m3
4438.4 kPa	991.1 kg/m3
4464.5 kPa	991.2 kg/m3
4490.5 kPa	991.3 kg/m3
4516.1 kPa	991.2 kg/m3
4546.4 kPa	991.3 kg/m3
4570.9 kPa	991.3 kg/m3
4594.9 kPa	991.4 kg/m3
4622.1 kPa	991.2 kg/m3
4643.9 kPa	991.3 kg/m3
4664.2 kPa	991.3 kg/m3
4683 kPa	991.5 kg/m3
4704.7 kPa	991.4 kg/m3
4723 kPa	991.4 kg/m3
4740.8 kPa	991.3 kg/m3
4757.6 kPa	991.4 kg/m3
4774.9 kPa	991.4 kg/m3
4794.3 kPa	991.6 kg/m3
4810.9 kPa	991.4 kg/m3
4827 kPa	991.4 kg/m3
4842.8 kPa	991.5 kg/m3
4861.3 kPa	991.4 kg/m3
4908.5 kPa	991.5 kg/m3
5374.3 kPa	991.8 kg/m3
5390.7 kPa	991.8 kg/m3
5411 kPa	991.8 kg/m3
5427.2 kPa	991.8 kg/m3
5447.1 kPa	991.9 kg/m3
5464.4 kPa	991.8 kg/m3
5481.4 kPa	991.9 kg/m3
5498.1 kPa	991.8 kg/m3
5518.7 kPa	991.9 kg/m3
5591.9 kPa	992 kg/m3
5609.7 kPa	992 kg/m3
5627.2 kPa	991.9 kg/m3
5647.7 kPa	991.9 kg/m3
5665.4 kPa	992 kg/m3
5875.7 kPa	992.1 kg/m3
5894 kPa	992.1 kg/m3
5931.3 kPa	992.1 kg/m3
5953.6 kPa	992.2 kg/m3
5972 kPa	992.2 kg/m3
5990.6 kPa	992.2 kg/m3
6012.9 kPa	992.2 kg/m3
6031.6 kPa	992.2 kg/m3
6050.3 kPa	992.2 kg/m3
6072.9 kPa	992.2 kg/m3
6111.5 kPa	992.2 kg/m3
10602 kPa	995.1 kg/m3
10632 kPa	995.1 kg/m3
10660 kPa	995.1 kg/m3
10689 kPa	995 kg/m3
10724 kPa	995.1 kg/m3
10753 kPa	995.2 kg/m3
10782 kPa	995.1 kg/m3

Reference: the NIST ThermoML archive (doi:10.1021/je060271a)
